Source: patent US20100130526A1, “Methods for Disease Therapy” (priority 2008, published 2010)

Columns and labels:
Type in all cases: in vivo, human
[1] = test system: KPNA1 mRNA; experiment: Microarray analysis of KPNA1 mRNA expression in PBMC of malaria patients before and after chloroquine therapy; settings: disease-decreased level (3.9-fold), p=0.0015, data set GSE5418
Excerpt: (§1) (See FIG. 12). […] (See FIG. 12).

[2] = test system: NLRP1 mRNA; experiment: Microarray analysis of NLRP1 mRNA expression in PBMC of malaria patients before and after chloroquine therapy; settings: disease-decreased level (1.4-fold), p=0.016, data set GSE5418
Excerpt: as §1

[3] = test system: NLRP3 mRNA; experiment: Microarray analysis of NLRP3 mRNA expression in PBMC of malaria patients before and after chloroquine therapy; settings: disease-increased level (2.7-fold), p=0.024, data set GSE5418
Excerpt: as §1

[4] = test system: KPNA6 mRNA; experiment: Microarray analysis of KPNA6 mRNA expression in PBMC of malaria patients before and after chloroquine therapy; settings: data set GSE5418
Excerpt: as §1

[5] = test system: principal components of nuclear import and inflammasome pathways; experiment: Gene expression phenotypes of nuclear import and inflammasome pathways in PBMC of chloroquine-treated malaria patients; settings: PBMC of malaria patients treated with chloroquine

CCN(CC)CCCC(C)Nc1ccnc2cc(Cl)ccc12 (centres unmarked) [chloroquine]
KPNA1 mRNA expression elevated after chloroquine therapy [1]: 66% | NLRP1 mRNA expression elevated after chloroquine therapy [2]: 13% | NLRP3 mRNA expression reduced after chloroquine therapy [3]: 57% | KPNA6 mRNA expression change after chloroquine therapy [4]: do not manifest statistically significant changes | Effect on aberrant disease-associated gene expression phenotypes (KPNA1, NLRP1, NLRP3) [5]: partial reversal of the aberrant gene expression phenotypes
